Test: method code SF-AS, from PMID: 1438511

| logD (pH 8.0) | logP | Structure (SMILES) |
| --- | --- | --- |
| 2.75 | – | c1ccc(OCc2cccc(CN3CCCOC3)c2)cc1 |
| – | 2.87 | c1ccc(OCc2cccc(CN3CCCCCC3)c2)cc1 |
